Assay results from US5674467A, “Meso-tetraphenylporphyrin complex compounds, process for their production and pharmaceutical agents containing the latter” (Institut fur Diagnostikforschung GmbH, priority 1993, dated 1997).

Legend:
[1] = test system: implanted tumor and lymph nodes; test: MR-imaging of VX-2 tumor-bearing rabbits: implanted tumor and lymph nodes; type: in vivo, rabbit; settings: 0.1 mmol/kg i.v.
Source text: (§1) MR-Imaging Experiment of Tumor-bearing (VX-2 Carcinoma) Rabbits
(§2) Siemens magnetom® (1.5 tesla; 64 MHz), T1 -accentuated spin-echo technique: TR : 350 ms, TE : 15 ms. slice orientation: coronary, slice thickness: 3 mm, number of averages: 4 per layer, field of view: 150 mm, matrix: 256^2, 4-6 layers, 1 echo per imaging sequence.
(§3) Hare rabbit, Wulf, female,=4 kg of body weight (KGW) [n=3].
(§4) Carcinoma (VX-2), implanted intramuscularly about 3 weeks before the beginning of the test.
(§5) 0.05 and 0.1 mmol/kg of body weight i.v.

lymph nodes (iliacal) = test: MR-imaging of VX-2 tumor-bearing rabbits: lymph nodes (iliacal); type: in vivo, rabbit; settings: 0.1 mmol/kg i.v.
Source text: as §1, §2, §3, §4, §5

lymph node metastasis = test: MR-imaging of VX-2 tumor-bearing rabbits: lymph node metastasis; type: in vivo, rabbit; settings: 0.1 mmol/kg i.v.
Source text: as §1, §2, §3, §4, §5

muscle = test: MR-imaging of VX-2 tumor-bearing rabbits: muscle; type: in vivo, rabbit; settings: 0.1 mmol/kg i.v.
Source text: as §1, §2, §3, §4, §5

VX-2 carcinoma = test: MR-imaging of VX-2 tumor-bearing rabbits: VX-2 carcinoma; type: in vivo, rabbit; settings: 0.1 mmol/kg i.v.
Source text: as §1, §2, §3, §4, §5

[2] = Relaxivity on relaxometer (minispec pc120; 20 MHz; 40° C.); type: physicochemical; settings: dist. water, pH 7.4, 20 MHz, 0-1 mmol/l
Method: (§6) Determination of Compatibility and Relaxivity of the Compounds According to the Invention
To determine the relaxivity, the relaxation times of the substances were measured in 4 different concentrations (0-1 mmol/l; dissolved in dist. water; pH 7.4) on a relaxometer (minispec pc120; 20 MHz; 40° C.). The calculation was performed from:
Δ(1/T1,2 -1/T1,2 blank value)/Δconc.=R1,2

[3] = Compatibility in mice after i.v. administration, 7-day observation; settings: mouse, in vivo, iv, 7 days observation, > if all animals tolerated the dose, < if all died
Method: as §6
The compatibility was examined preliminarily in mice (NMRI, Schering SPF, female, about 25 g). 0.5 mmol/kg of the substance in each case was administered intravenously to a mouse. The animal died, the dose was halved and correspondingly moved, otherwise the corresponding dose was administered to 2 additional mice. The period of observation was 7 days. The compatibility is indicated with > if all animals tolerated the corresponding dose, with < if all died.

[4] = 0 min p.i. (precontrast set to 1)

Question: What does the source list for Gd-DTPA?
Answer: enhancement of tumors or metastases after about 60-90 minutes [1]: almost no enhancement of tumors or metastases was observed any longer; signal rise in implanted tumor and lymph nodes ([1]; lymph nodes on tumor-bearing and tumor-free side (iliacal and popliteal)): only in a brief, small signal rise; time until approximately the starting intensity was reached again ([1]; virtually all examined tissues, within about): 60 to 90 min; Relative signal intensity, lymph nodes (iliacal) (lymph nodes (iliacal); [4]): 1.00; Relative signal intensity, lymph nodes (iliacal) (lymph nodes (iliacal); 2 min p.i.): 1.50; Relative signal intensity, lymph nodes (iliacal) (lymph nodes (iliacal); 8 min p.i.): 1.32; Relative signal intensity, lymph nodes (iliacal) (lymph nodes (iliacal); 17 min p.i.): 1.20; Relative signal intensity, lymph nodes (iliacal) (lymph nodes (iliacal); 42 min p.i.): 1.24; Relative signal intensity, lymph nodes (iliacal) (lymph nodes (iliacal); 52 min p.i.): 1.17; Relative signal intensity, lymph nodes (iliacal) (lymph nodes (iliacal); 69 min p.i.): 1.11; Relative signal intensity, lymph nodes (iliacal) (lymph nodes (iliacal); 24 hours p.i.): 1.14; Relative signal intensity, lymph node metastasis (lymph node metastasis; [4]): 1.00; Relative signal intensity, lymph node metastasis (lymph node metastasis; 2 min p.i.): 1.61; Relative signal intensity, lymph node metastasis (lymph node metastasis; 8 min p.i.): 1.44; Relative signal intensity, lymph node metastasis (lymph node metastasis; 17 min p.i.): 1.36; Relative signal intensity, lymph node metastasis (lymph node metastasis; 42 min p.i.): 1.29; Relative signal intensity, lymph node metastasis (lymph node metastasis; 52 min p.i.): 1.20; Relative signal intensity, lymph node metastasis (lymph node metastasis; 69 min p.i.): 1.25; Relative signal intensity, lymph node metastasis (lymph node metastasis; 24 hours p.i.): 0.97; Relative signal intensity, muscle (muscle; [4]): 1.00; Relative signal intensity, muscle (muscle; 2 min p.i.): 1.20; Relative signal intensity, muscle (muscle; 8 min p.i.): 1.11; Relative signal intensity, muscle (muscle; 17 min p.i.): 1.10; Relative signal intensity, muscle (muscle; 42 min p.i.): 1.07; Relative signal intensity, muscle (muscle; 52 min p.i.): 1.02; Relative signal intensity, muscle (muscle; 69 min p.i.): 1.08; Relative signal intensity, muscle (muscle; 24 hours p.i.): 1.04; Relative signal intensity, VX-2 carcinoma (VX-2 carcinoma; [4]): 1.00; Relative signal intensity, VX-2 carcinoma (VX-2 carcinoma; 2 min p.i.): 1.50; Relative signal intensity, VX-2 carcinoma (VX-2 carcinoma; 8 min p.i.): 1.50; Relative signal intensity, VX-2 carcinoma (VX-2 carcinoma; 17 min p.i.): 1.48; Relative signal intensity, VX-2 carcinoma (VX-2 carcinoma; 42 min p.i.): 1.47; Relative signal intensity, VX-2 carcinoma (VX-2 carcinoma; 52 min p.i.): 1.42; Relative signal intensity, VX-2 carcinoma (VX-2 carcinoma; 69 min p.i.): 1.40; Relative signal intensity, VX-2 carcinoma (VX-2 carcinoma; 24 hours p.i.): 1.11

Question: For `O=C(O)COc1cccc(-c2c3nc(c(-c4cccc(OCC(=O)O)c4)c4ccc([nH]4)c(-c4cccc(OCC(=O)O)c4)c4nc(c(-c5cccc(OCC(=O)O)c5)c5ccc2[nH]5)C=C4)C=C3)c1.[Cl-].[Cl-].[Cl-].[Mn+3]` [Example 2c, Manganese(III)-{5,10,15,20-tetrakis-[3-(carboxymethoxy)-phenyl]-porphyrin}-chloride], which “Relaxivity R1” value [2] is on record?
Answer: 13 I/mmol/s

Question: What about the MTD at 168 h [3] of the same molecule?
Answer: > 500 µmol/kg

Question: With “Manganese (III){5,10,15,20tetrakis-{[4carboxylic acid(2,3-dihydroxy-1-hydroxymethylpropyl)-amidephenylporphyrinacetate [Example 2 from EP 0336 879 A1]” as the molecule, how does the “Relaxivity R1” value [2] read?
Answer: 8.6 I/mmol/s

Question: With `CC(=O)[O-].O=C([O-])c1cccc(-c2c3nc(c(-c4cccc(C(=O)[O-])c4)c4ccc([nH]4)c(-c4cccc(C(=O)[O-])c4)c4nc(c(-c5cccc(C(=O)[O-])c5)c5ccc2[nH]5)C=C4)C=C3)c1.[Mn+3]` [Example 4 from EP 0336 879 A1] as the molecule, how does the “Relaxivity R1” value [2] read?
Answer: 8.8 I/mmol/s

Question: Which “Relaxivity R1” value [2] does the source give for `CC(=O)[O-].CC(=O)[O-].CC(=O)[O-].CCOC(=O)COc1ccc(-c2c3nc(c(-c4ccc(OCC(=O)OCC)c(OCC(=O)OCC)c4)c4ccc([nH]4)c(-c4ccc(OCC(=O)OCC)c(OCC(=O)OCC)c4)c4nc(c(-c5ccc(OCC(=O)OCC)c(OCC(=O)OCC)c5)c5ccc2[nH]5)C=C4)C=C3)cc1OCC(=O)OCC.[Mn+3]` [Example 4c, Manganese(III)-{5,10,15,20-tetrakis-[3,4-bis-(ethoxycarbonylmethoxy)-phenyl]-porphyrin}-acetate] here?
Answer: 11.6 I/mmol/s

Question: And the MTD at 168 h [3]?
Answer: ≥ 500 µmol/kg

Question: For `CC(=O)[O-].COc1ccc(-c2c3nc(c(-c4ccc(OC)c(S(=O)(=O)[O-])c4)c4ccc([nH]4)c(-c4ccc(OC)c(S(=O)(=O)[O-])c4)c4nc(c(-c5ccc(OC)c(S(=O)(=O)[O-])c5)c5ccc2[nH]5)C=C4)C=C3)cc1S(=O)(=O)[O-].[Mn+3].[Na+].[Na+].[Na+].[Na+]` [Example 17 from EP 0336 879 A1], which “Relaxivity R1” value [2] is on record?
Answer: 9.2 I/mmol/s
